According to patent US11033537B2, “LPT-723 and immune checkpoint inhibitor combinations and methods of treatment” (BIOMED VALLEY DISCOVERIES, INC., priority 2015, dated 2021):

Key:
[1] = Mouse 7-day dose range finding study; format: in vivo; settings: 7 days
Method: Preparation of Test and Control/Vehicle Items: Vehicle is 2% TPGS/1.5% HPMCAS-HF/1.5% PVP-VA with 50 mM sodium citrate (pH 5.0) in deionized water. LPT-723 is a spray dried dispersion (SDD) containing 25% active and 75% HPMCAS-HF polymer. Test and vehicle items were stored at room temperature, protected from light, and desiccated. Dose formulation was prepared daily. Unless indicated otherwise, LPT-723 was mixed with vehicle to achieve the desired concentrations, using appropriate mixing equipment to achieve homogenous formulations.
The LPT-723 and vehicle were administered once per day for 7 consecutive days. Doses were administered at approximately the same time (±2 hours) throughout the duration of the study. All main study animals were submitted for necropsy on Day 8 (the day following the final dose).

A20 cells = experiment: In vitro cell viability assay, A20; format: cell-based, murine; settings: Mus musculus
[2] = test system: A20 murine syngeneic B cell lymphoma; experiment: A20 lymphoma syngeneic model; format: in vivo, BALB/c mice; settings: Day 15; LPT-723 30 mpk p.o. bid; anti-PD-1 10 mpk i.p. twice a week
Method: BALB/c mice bearing A20 murine syngeneic B cell lymphoma were treated with control (vehicle), anti-PD-1 (clone RMP1-14), LPT-723 and anti-PD-1/LPT-723 combination. Treatment was initiated when tumor volume reached approximately 80-120 mm^3. Anti-PD-1 was dosed i.p. twice a week for three weeks at 10 mpk. LPT-723 was dosed p.o. twice a day at 30 mpk. […] No significant changes in body weights were noted.

HCT116 cells = experiment: In vitro activity on HCT116 cells in culture; format: cell-based, human; settings: up to 30 μM
[3] = test system: Salmonella typhimurium TA98 and TA100; experiment: 2-Strain Ames test; settings: 1.5 to 5000 μg per plate, with and without rat liver S9
Source text: Test System: The two tester strains used were the Salmonella typhimurium histidine auxotrophs TA98 and TA100 as described by Ames et al. (1975). Tester strain TA98 is reverted from auxotrophy to prototrophy by frameshift mutagens while tester strain TA100 is reverted by mutagens that cause both frameshift and base pair substitution mutations.
Experimental Design: The test system was exposed to LPT-723 via the plate incorporation methodology originally described by McCann et al. (1975) and updated by Maron and Ames (1983). Briefly, LPT-723 was tested at eight dose levels along with appropriate vehicle control and positive controls. Overnight cultures of tester strains TA98 and TA100 were plated on selective minimal agar in the presence and absence of Aroclor-induced rat liver S9. […]
Plating and Scoring Procedures: LPT-723 dilutions were prepared immediately before use and delivered to the test system at room temperature under yellow light. […] Plates were counted immediately following the incubation period or were stored at 2-8° C. until colony counting could be conducted.
The condition of the bacterial background lawn was evaluated for evidence of LPT-723 toxicity using a dissecting microscope. Precipitate was evaluated by visual examination without magnification. […] Plates with sufficient LPT-723 precipitate to interfere with automated colony counting were counted manually. […]

[4] = Monkey 7-day dose range finding study; format: in vivo
Method: Preparation of the Control/Vehicle Item: The control/vehicle item (2% TPGS/1.5% HPMCAS-HF/1.5% PVP-VA with 50 mM sodium citrate buffer pH 5.0) was prepared 3 days prior to the start of dosing and was stored at room temperature, away from direct light for the duration of the study. The instructions below were for the preparation of a final volume of 2.5 L. These instructions were scaled as needed.
500 mL of 10% Vitamin E-TPGS were added to an appropriate sized container and stirring was initiated. 750 mL of 5% HPMCAS-HF/5% PVP-VA were added to the same container and stirred at medium speed for 30 minutes to ensure proper mixing. 1 L of deionized water was added and stirring was continued for 30 minutes. 125 mL of 1M sodium citrate buffer and 125 mL of deionized water were added with stirring. The final vehicle was stirred at medium speed for 1 hour. The vehicle was a hazy solution and was stored at room temperature, away from direct light for the duration of the study.
Experimental Design: The test and control/vehicle items were administered once daily for 7 consecutive days by oral gavage as described in Table 6 below. The dose volume administered to each animal was 5 mL/kg. One day after the end of dosing, the Main animals were euthanized and subjected to a necropsy examination on Day 8.

MBT-2 cells = experiment: In vitro cell viability assay, MBT-2; format: cell-based, murine; settings: Mus musculus
Pan02 cells = experiment: In vitro cell viability assay (CellTiter-Glo), Pan02; format: cell-based, murine; settings: Mus musculus
Source text: No significant changes in body weights were noted.

Q: Which tolerability ([1]; mouse, 15, 35, 70 mg/kg/day) does the source give for `Cc1cc(-c2cncc(C(O)C(F)(F)F)c2)nc2c1C(=O)N(c1cnn(CC(F)F)c1)C2(C)C` (stereo not drawn) [LPT-723] here?
A: Its tolerability is “well tolerated”.

Q: And the “clinical signs and histopathology” value ([1]; mouse)?
A: Its value is “no clinical signs or histopatholoy findings”.

Q: And the “lymphocyte and monocyte counts” value ([1]; mouse)?
A: The value was “decrease in lymphocyte and monocyte counts”.

Q: And the IC50 (A20 cells)?
A: Its IC50 is 84.1 µM.

Q: What about the “decrease in median tumor volume” value [2] of the same compound?
A: Its value is 43%.

Q: And the “activity in vitro on HCT116 cells in culture” value (HCT116 cells)?
A: Its value is “no activity”.

Q: What about the “toxicity (Ames plate incorporation)” value [3] of the same compound?
A: The value was “No toxicity was observed”.

Q: What about the “highest dose versus maximum tolerated dose” value ([4]; monkey, 40 mg/kg/day oral, 7 days) of the same compound?
A: Its value is “exceeded the maximum tolerated dose (MTD)”.

Q: What about the lymphocyte counts ([4]; monkey, 15, 25, 40 mg/kg/day, 7 days) of the same compound?
A: Its lymphocyte counts is “dose-related decrease in lymphocyte counts”.

Q: What about the expected therapeutic index ([4]; monkey, with lower doses) of the same compound?
A: Its expected therapeutic index is “approximately 5”.

Q: What about the IC50 (MBT-2 cells) of the same compound?
A: The IC50 was 45.5 µM.

Q: And the IC50 (Pan02 cells)?
A: Its IC50 is 26.6 µM.
